Holding throughout (assay): NCI-60 cell line screen, 48 h
Assay [1] has as its system SW-620 colon.
Assay [2] has as its system NCI/ADR-RES ovarian.
The subject of assay [3] is SF-268 CNS.
In assay [4] the test system is UACC-257 melanoma.
Assay [5] relates to LOX IMVI melanoma.
Assay [6] deals with HCC-2998 colon.
For assay [7], the system named is T-47D breast.
Assay [8] deals with RXF 393 renal.
Assay [9] has as its system HCT-15 colon.
In assay [10] the test system is M14 melanoma.
Assay [11] concerns MDA-MB-435.
The subject of assay [12] is SN12C renal.
For assay [13], the system named is COLO 205 colon.

The values below come from PubChem BioAssay (NCI).

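These data come from cells grown in 96-well plates and exposed to compound for 48 hours at five concentrations. TGI marks complete inhibition of growth.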

With `CC(C)Cn1cnc2c(Cl)nc3ccccc3c21`, the TGI in assay [1], in assay [2], in assay [3], in assay [4], in [5] and in assay [6] was above 100 µM throughout. Further, the TGI in [7], in assay [8], in assay [9], in assay [10], in assay [11] and in assay [12] was above 100 µM throughout. Moreover, the TGI in assay [13] is above 100 µM.
For `Cc1cccc(C)c1N=Nc1ccc(O)c(CN(C)C)c1`, the TGI is above 100 µM in [1]; above 100 µM in [2]; above 100 µM in [3]; above 100 µM in [4]; above 100 µM in assay [5]; 48.8 µM in [6]. The TGI in assay [7] was 79.3 µM; in [8] it was 46 µM; in assay [9] it was above 100 µM; in [10] it was 58.1 µM; in assay [11] it was above 100 µM; in assay [12], above 100 µM. Further, the TGI in assay [13] amounted to 44.8 µM.
Regarding `O=[N+]([O-])/C(Cl)=C/C(=C1/Nc2ccccc2O1)[N+](=O)[O-]`, the TGI in assay [1] was 72.3 µM; in [2], 73.2 µM; in assay [3], 54.4 µM; in assay [4] it was 25.1 µM; in assay [5], 23.1 µM; in [6], 28 µM. Further, the TGI in assay [7] was above 100 µM; in assay [8], 38.6 µM; in [9], 42 µM; in [10], 51.1 µM; in assay [11], 32 µM; in assay [12] it was above 100 µM. For the same molecule, in assay [13], the TGI was 45.1 µM.
`CCC1CCC2c3c([nH]c4ccc(C)cc34)C3C(=O)N(N(C)C)C(=O)C3C2C1` (stereo not given): the TGI in [1] was above 100 µM; in assay [2], above 53.5 µM; in assay [3], above 59.8 µM; in assay [4], above 100 µM; in [5] it was above 100 µM; in assay [6] it was above 100 µM. Moreover, the TGI in [7] was 41.2 µM; in assay [8] it was 57.7 µM; in assay [9] it was above 100 µM; in assay [10], above 100 µM; in [11], above 33.4 µM; in assay [12], above 100 µM. The molecule also came in with a TGI in [13] above 100 µM.
As for `Cc1ccsc1C(=S)Nc1ccc(Cl)c(/C=N/OC(C)C)c1`, the TGI in assay [1] was above 100 µM; in [2], above 100 µM; in [3], above 100 µM; in assay [4] it was above 100 µM; in [5], above 100 µM; in assay [6] it was 64.3 µM. Also, the TGI in [7] is above 100 µM; in assay [8] it was 69.4 µM; in assay [9], above 100 µM; in assay [10], above 100 µM; in assay [11], above 100 µM; in assay [12], above 100 µM. In assay [13], the TGI came to 47.3 µM.
As for `CCOC(=O)C(NC(=O)CC)(Nc1ccc(F)cc1F)C(F)(F)F` (stereo not given), the TGI in [1], in [2], in assay [3], in [4], in [5] and in [6] was above 100 µM each time. Moreover, the TGI in assay [7], in assay [8], in assay [9], in assay [10], in assay [11] and in [12] was above 100 µM in each case. This molecule also yielded a TGI in assay [13] above 100 µM.
For the molecule `Cc1cc(S(=O)(=O)NC(=NCCc2ccccc2)NN)c(S)cc1Cl`, the TGI in [1] was 82.5 µM; in [2] it was 57.8 µM; in assay [3], 79.7 µM; in [4], above 100 µM; in [5] it was above 100 µM; in [6], 50.6 µM. The TGI is 63 µM in assay [7]; 64.7 µM in assay [8]; 37.9 µM in [9]; 91.5 µM in assay [10]; 61.1 µM in assay [11]; above 100 µM in assay [12]. Also, the TGI in assay [13] is above 100 µM.
As to `CC1=CC(=O)N(n2c(Cc3ccc(Cl)cc3)n[nH]c2=O)C1=O`, the TGI in assay [1], in [2], in assay [3], in [4], in assay [5] and in assay [6] was above 100 µM in each case. Besides, the TGI in assay [7] was above 100 µM; in [8], 53.1 µM; in [9], above 100 µM; in [10], above 100 µM; in [11], above 100 µM; in [12], above 100 µM. The molecule further had a TGI in assay [13] above 100 µM.
Consider `CCC12C=CCN3CCC4(c5cc(C(c6ccc(OC)cc6)C6Cc7ccccc7N6)c(OC)cc5N(C)C4C(O)(C(=O)OC)C1O)C32` (stereo not given), for which the TGI in assay [1] is above 100 µM; in assay [2], above 100 µM; in assay [3], above 100 µM; in assay [4], above 100 µM; in assay [5] it was 36 µM; in assay [6] it was 57.5 µM. Also, the TGI in assay [7] was 9.98 µM; in assay [8], 83.1 µM; in assay [9], above 100 µM; in assay [10], above 100 µM; in [11], 80.4 µM; in [12], above 100 µM. For the same molecule, in [13], the TGI was found to be 27.5 µM.
As to `O=C1C=C(c2ccccc2)O/C1=C\C(=O)c1ccc(Cl)cc1`, the TGI in [1] turned out to be 10.1 µM; in assay [2], 52.4 µM; in assay [3] it was 52.2 µM; in assay [4], 37.1 µM; in assay [5], 30.1 µM; in assay [6], 87.5 µM. Further, the TGI in assay [7] worked out at 74.1 µM; in [8], 32.6 µM; in assay [9], 35.1 µM; in assay [10], 41.5 µM; in assay [11], 29.8 µM; in [12], 11.5 µM. In assay [13], this molecule registered a TGI of 30.8 µM.
